test system: Sphaerotheca fuliginea; assay: Sphaerotheca test (cucumber)/protective; type: in vivo; details: cucumber plants, protective spray, 750 g/ha, evaluation 7 days after inoculation
Protocol: Sphaerotheca Test (Cucumber)/Protective
Solvent: 49 parts by weight of N,N-dimethylformamide
Emulsifier: 1 part by weight of alkylaryl polyglycol ether
To produce a suitable preparation of active compound, 1 part by weight of active compound is mixed with the stated amounts of solvent and emulsifier, and the concentrate is diluted with water to the desired concentration.
To test for protective activity, young cucumber plants are sprayed with the preparation of active compound at the stated application rate. One day after the treatment, the plants are inoculated with a spore suspension of Sphaerotheca fuliginea. The plants are then placed in a greenhouse at 70% relative atmospheric humidity and a temperature of 23° C.
Evaluation is carried out 7 days after the inoculation. 0% means an efficacy which corresponds to that of the control, whereas an efficacy of 100% means that no infection is observed.

Q: For `CC(C)CC(C)c1ccccc1NC(=O)c1cn(C)nc1Cl` (stereo not drawn) [drawing 131], which Efficacy in % is on record?
A: 100%

Q: For `CC(C)CC(C)c1cc(F)ccc1NC(=O)c1cn(C)nc1C(F)(F)F` (stereo not drawn) [drawing 132], which Efficacy in % is on record?
A: 100%

Q: For `Cc1sccc1C(=O)Nc1ccc(F)cc1C(C)CC(C)C` (stereo not drawn) [drawing 133], which Efficacy in % is on record?
A: 100%
